Paper PMC3160846 (PLoS ONE, 2011)

Legend:
Assay type in all cases: cell-based, Human
HONE-1 cells = assay: Clonogenic assay, HONE-1
Procedure: (§1) Human lung adenocarcinoma A549 cells and NTUB1 bladder cancer cells were maintained in RPMI supplied with 10% fetal bovine serum. […] KB-derived MRP1-expressing cell line, KB-7D, was maintained in growth medium supplemented with 7 µM VP-16.
(§2) Two hundred cells in logarithmic growth phase were seeded in a 6-well plate. The cells were exposed to various concentrations of the test drugs for a three-generation period. At the end of the incubation period, cells were fixed and stained with 50% ethanol containing 0.5% methylene blue for 30 min. The plates were washed five times with water and allowed to air-dry. Colonies were countered manually. […] Each value represents the average of at least three independent experiments run in triplicates.

OECM-1 cells = assay: Clonogenic assay, OECM-1
Procedure: as §1, §2

KB-VIN10 cells = assay: Clonogenic assay, KB-VIN10
Procedure: as §1, §2

KB cells = assay: Clonogenic assay, KB
Procedure: as §1, §2

A549 cells = assay: Clonogenic assay, A549
Procedure: as §1, §2

IM9 cells = assay: Clonogenic assay, IM9
Procedure: as §1, §2

KB-S15 cells = assay: Clonogenic assay, KB-S15
Procedure: as §1, §2

MV4-11 cells = assay: Clonogenic assay, MV4-11
Procedure: as §1, §2

NTUB1 cells = assay: Clonogenic assay, NTUB1
Procedure: as §1, §2

NTU0.017 cells = assay: Clonogenic assay, NTU0.017
Procedure: as §1, §2

HT29 cells = assay: Clonogenic assay, HT29
Procedure: as §1, §2

CO[C@@H](C(=O)N1Cc2n[nH]c(NC(=O)c3ccc(N4CCN(C)CC4)cc3)c2C1)c1ccccc1 [PHA-739358]
Fold difference as compare to the IC50 of BPR1K653 (HONE-1 cells; HONE-1): 5 fold
IC50 (HONE-1 cells; Homo sapiens, HONE1, HONE-1, oral, p53 mutant, MDR1 negative, read-out: IC50, anti-proliferative activity): 0.059 ± 0.016 µM
IC50 (OECM-1 cells; Homo sapiens, OECM1, OECM-1, oral, p53 mutant, MDR1 negative, read-out: IC50, anti-proliferative activity): 0.642 ± 0.068 µM
Fold difference as compare to the IC50 of BPR1K653 (OECM-1 cells; OECM-1): 5 fold
IC50 (KB-VIN10 cells; Homo sapiens, KB-VIN10, vincristine resistant, MDR1 ↑, read-out: IC50, anti-proliferative activity): > 25 µM
Fold difference as compare to the IC50 in the respective parental cells (KB-VIN10 cells; KB-VIN10 vs KB): > 63 fold
Fold difference as compare to the IC50 of BPR1K653 (KB cells): 33 fold
IC50 (KB cells; Homo sapiens, cervical, p53 wild-type, MDR1 negative (parental), read-out: IC50, anti-proliferative activity): 0.4 ± 0.1 µM
Fold difference as compare to the IC50 of BPR1K653 (A549 cells; A549): 6 fold
IC50 (A549 cells; Homo sapiens, A549, lung, p53 wild-type, MDR1 negative, read-out: IC50, anti-proliferative activity): 0.056 ± 0.008 µM
IC50 (IM9 cells; Homo sapiens, IM9, lymphoma, p53 wild-type, MDR1 negative, read-out: IC50, anti-proliferative activity): 0.45 ± 0.012 µM
Fold difference as compare to the IC50 of BPR1K653 (IM9 cells; IM9): 113 fold
IC50 (KB-S15 cells; Homo sapiens, KB-S15, paclitaxol resistant, MDR1 ↑, read-out: IC50, anti-proliferative activity): 4.7 µM
Fold difference as compare to the IC50 in the respective parental cells (KB-S15 cells; KB-S15 vs KB): 12 fold
IC50 (MV4-11 cells; Homo sapiens, MV4-11, leukemia, p53 mutant, MDR1 negative, read-out: IC50, anti-proliferative activity): 0.086 ± 0.011 µM
Fold difference as compare to the IC50 of BPR1K653 (MV4-11 cells; MV4-11): 17 fold
IC50 (NTUB1 cells; Homo sapiens, NTUB1, bladder, MDR1 negative (parental), read-out: IC50, anti-proliferative activity): 0.405 ± 0.134 µM
Fold difference as compare to the IC50 of BPR1K653 (NTUB1 cells; NTUB1): 51 fold
IC50 (NTU0.017 cells; Homo sapiens, NTU0.017, paclitaxol resistant, MDR1 ↑, read-out: IC50, anti-proliferative activity): > 50 µM
Fold difference as compare to the IC50 in the respective parental cells (NTU0.017 cells; NTU0.017 vs NTUB1): > 123 fold
Fold difference as compare to the IC50 of BPR1K653 (HT29 cells; HT29): 4 fold
IC50 (HT29 cells; Homo sapiens, HT-29, HT29, colon, p53 mutant, MDR1 negative, read-out: IC50, anti-proliferative activity): 0.048 ± 0.008 µM
